Experimental data as given in patent publication US12202801B1 (priority 2023, dated 2025).

Key:
[1] = tested on: Mycobacterium tuberculosis multidrug-resistant (MDR) strain; assay: microbe, parasite or virus in culture; format: cell-based; details: 192 h, read-out: Anti-tubercular activity against Mycobacterium tuberculosis (MIC), MDR
[2] = tested on: Mycobacterium tuberculosis extensively drug-resistant (XDR) strain; assay: microbe, parasite or virus in culture; format: cell-based; details: 192 h, read-out: Anti-tubercular activity against Mycobacterium tuberculosis (MIC), XDR

N#Cc1ccc(C(=O)C[n+]2ccc(C#N)cc2)cc1.[Br-] [Compound 3f, 4-Cyano-1-(2-(4-cyanophenyl)-2-oxoethyl)pyridin-1-ium bromide]
MIC [1]: 4 µg/mL | MIC [2]: 32 µg/mL
